# Source: ChEMBL document CHEMBL1144003, “Trypanocidal activity of a new pterocarpan and other secondary metabolites of plants from Northeastern Brazil flora” (Bioorg Med Chem, 2008)
# What was measured:
# [1] = test system: Trypanosoma cruzi; test: Trypanocidal activity against Trypanosoma cruzi Berenice after 72 hrs; type: functional, organism-based
# [2] = test system: PBL; test: Cytotoxicity against human PBL cells after 72 hrs by alamar blue assay; type: cell-based
# [3] = test system: HL-60; test: Antiproliferative activity against human HL60 cells; type: functional, cell-based
# [4] = test system: B16; test: Antiproliferative activity against mouse B16 cells; type: functional, cell-based
# [5] = test system: CCRF-CEM; test: Antiproliferative activity against human CEM cells; type: functional, cell-based
# [6] = test system: HCT-8; test: Antiproliferative activity against human HCT8 cells; type: functional, cell-based
Structure (SMILES),IC50 [1],IC50 [2],further results
CC(C)=CCC/C(C)=C/Cc1c(O)ccc(C(=O)/C=C/c2ccc(O)c(O)c2)c1O,10.6 µg/mL,23 µg/mL,–
CC(C)=CCc1c(O)ccc2c1OC[C@H]1c3cc4c(cc3O[C@@H]21)OCO4,13.3 µg/mL,> 50 µg/mL,–
CC(C)=CCC/C(C)=C/Cc1cc2c(cc1O)OC[C@H]1c3cc4c(cc3O[C@@H]21)OCO4,12.2 µg/mL,> 50 µg/mL,–
COC1=C(OC)C(=O)C2=C(C[C@H]3[C@](C)(C2)C[C@@H]2C[C@@]23C)C1=O (relative stereo),1.3 µg/mL,28.4 µg/mL,–
COc1cccc2c1C(=O)c1c(O)c3c(c(O)c1C2=O)C[C@@](O)(C(=O)CO)C[C@@H]3O[C@H]1C[C@H](N)[C@H](O)[C@H](C)O1 [DOXORUBICIN],–,0.97 µg/mL,–
C[C@@]12C[C@H]3OC(=O)[C@@H]1CO[C@]14O[C@]5([C@H]2C1=O)[C@@](O)(CC[C@H]1[C@H]4C[C@H]2O[C@]24CC=CC(=O)[C@]14C)C(=O)O[C@@]35C [PHYSALIN F],9.4 µg/mL,4.23 µg/mL,IC50 [3]: 0.5 µg/mL; IC50 [4]: 0.5 µg/mL; IC50 [5]: 0.5 µg/mL; IC50 [6]: 0.5 µg/mL
CC1=C(C)C(=O)O[C@@H]([C@]2(C)OC(=O)[C@]34CC[C@H]5[C@@H](C[C@H]6O[C@]67[C@@H](O)C=CC(=O)[C@]57C)[C@@H]3CC[C@H]24)C1 [WITHAPHYSALIN M],0.7 µg/mL,–,–
CC1=C(C)C(=O)O[C@@H]([C@]2(C)OC(=O)[C@]34CC[C@H]5[C@@H](C[C@H]6O[C@]67[C@@H](O)CCC(=O)[C@]57C)[C@@H]3CC[C@H]24)C1 [WITHAPHYSALIN N],6.4 µg/mL,–,–
CCOC1O[C@@](C)([C@H]2CC(C)=C(C)C(=O)O2)[C@H]2CC[C@H]3[C@@H]4C[C@H]5O[C@]56[C@@H](O)C=CC(=O)[C@]6(C)[C@H]4CC[C@]123 (stereo partly drawn) [WITHAPHYSALIN O],0.3 µg/mL,–,–
